Results published in patent US10457691B2, “Macrocyclic kinase inhibitors and uses thereof” (Dana-Farber Cancer Institute, Inc., priority 2014, dated 2019).

Assays:
Format in all cases: biochemical
PKA = PKA (Homo sapiens, UniProt P17612); experiment: Protein kinase assay ([γ-32P] ATP), PKA; settings: read-out: Activity of the protein kinase when treated with compound I-1 (% control)
Method: (§1) In another set of experiments, the activities of the compounds described herein against various protein kinases were determined according to the methods reported in Hastie et al., Nature Protocols, 2006, 1, 968-971.
(§2) Enzyme dilution buffer. This buffer consisted of 50 mM Tris-HCl, pH 7.5, 0.1 mM EGTA, 1 mg ml^−1 bovine serum albumin and 0.1% (vol/vol) 2-mercaptoethanol.
(§3) 10× concentrated assay buffer. An assay buffer of 500 mM Tris-HCl, pH 7.5, 1 mM EGTA, and 100 mM magnesium acetate was used for assay of a wide variety of protein kinases. In some experiments, other cofactors were included (e.g., calcium ions and calmodulin were included for assay of calcium-calmodulindependent protein kinases).
(§4) 1 mM [γ-^32P] ATP. The specific activity of the [γ-^32P] ATP solution was 1×10^5 to 1×10^6 c.p.m. per nmol depending on what was needed to produce an optimal signal/noise ratio. […] To measure the concentration of ATP, a sample of such a stock solution was diluted to 20 μM, and the absorbance of the diluted sample was measured at 259 nm. The absorbance of a 20-μM stock solution of ATP at 259 nm was about 0.31. […] ATP to produce a radioactivity of 1×10^5 to 1×10^6 c.p.m. per nmol. […]
(§5) 13) Measure radioactivity in the samples by Cerenkov counting (e.g., without liquid scintillation fluid) in a liquid scintillation counter using a “^32P program”. […]

MAPKAP-K2 = MAPKAP-K2 (Homo sapiens, UniProt P49137); experiment: Protein kinase assay ([γ-32P] ATP), MAPKAP-K2; settings: read-out: Activity of the protein kinase when treated with compound I-1 (% control)
Method: as §1, §2, §3, §4, §5

ABL = ABL (Homo sapiens, UniProt P00519); experiment: Protein kinase assay ([γ-32P] ATP), ABL; settings: read-out: Activity of the protein kinase when treated with compound I-1 (% control)
Method: as §1, §2, §3, §4, §5

ROCK 2 = experiment: Protein kinase assay ([γ-32P] ATP), ROCK 2
Method: as §1, §2, §3, §4, §5

CK1δ = CK1δ (Homo sapiens, UniProt P48730); experiment: Protein kinase assay ([γ-32P] ATP), CK1δ; settings: read-out: Activity of the protein kinase when treated with compound I-1 (% control)
Method: as §1, §2, §3, §4, §5

EF2K = EF2K (Homo sapiens, UniProt O00418); experiment: Protein kinase assay ([γ-32P] ATP), EF2K; settings: read-out: Activity of the protein kinase when treated with compound I-1 (% control)
Method: as §1, §2, §3, §4, §5

MARK2 = MARK2 (Homo sapiens, UniProt Q7KZI7); experiment: Protein kinase assay ([γ-32P] ATP), MARK2; settings: read-out: Activity of the protein kinase when treated with compound I-1 (% control)
Method: as §1, §2, §3, §4, §5

EPH-A4 = EPH-A4 (Homo sapiens, UniProt P54764); experiment: Protein kinase assay ([γ-32P] ATP), EPH-A4; settings: read-out: Activity of the protein kinase when treated with compound I-1 (% control)
Method: as §1, §2, §3, §4, §5

EPH-B1 = EPH-B1 (Homo sapiens, UniProt P54762); experiment: Protein kinase assay ([γ-32P] ATP), EPH-B1; settings: read-out: Activity of the protein kinase when treated with compound I-1 (% control)
Method: as §1, §2, §3, §4, §5

PKBb = PKBb (Homo sapiens, UniProt P31751); experiment: Protein kinase assay ([γ-32P] ATP), PKBb; settings: read-out: Activity of the protein kinase when treated with compound I-1 (% control)
Method: as §1, §2, §3, §4, §5

PDK1 = PDK1 (Homo sapiens, UniProt O15530); experiment: Protein kinase assay ([γ-32P] ATP), PDK1; settings: read-out: Activity of the protein kinase when treated with compound I-1 (% control)
Method: as §1, §2, §3, §4, §5

TIE2 = TIE2 (Homo sapiens, UniProt Q02763); experiment: Protein kinase assay ([γ-32P] ATP), TIE2; settings: read-out: Activity of the protein kinase when treated with compound I-1 (% control)
Method: as §1, §2, §3, §4, §5

CHK1 = CHK1 (Homo sapiens, UniProt O14757); experiment: Protein kinase assay ([γ-32P] ATP), CHK1; settings: read-out: Activity of the protein kinase when treated with compound I-1 (% control)
Method: as §1, §2, §3, §4, §5

IRAK4 = IRAK4 (Homo sapiens, UniProt Q9NWZ3); experiment: Protein kinase assay ([γ-32P] ATP), IRAK4; settings: read-out: Activity of the protein kinase when treated with compound I-1 (% control)
Method: as §1, §2, §3, §4, §5

CK2 = experiment: Protein kinase assay ([γ-32P] ATP), CK2
Method: as §1, §2, §3, §4, §5

GSK3b = GSK3b (Homo sapiens, UniProt P49841); experiment: Protein kinase assay ([γ-32P] ATP), GSK3b; settings: read-out: Activity of the protein kinase when treated with compound I-1 (% control)
Method: as §1, §2, §3, §4, §5

ERK1 = ERK1 (Homo sapiens, UniProt P27361); experiment: Protein kinase assay ([γ-32P] ATP), ERK1; settings: read-out: Activity of the protein kinase when treated with compound I-1 (% control)
Method: as §1, §2, §3, §4, §5

[1] = 0.1 μM of compound I-1, DMSO control = 100%
[2] = 1 μM of compound I-1, DMSO control = 100%

TIE2, sequence (Q02763 23-1124, species assumed): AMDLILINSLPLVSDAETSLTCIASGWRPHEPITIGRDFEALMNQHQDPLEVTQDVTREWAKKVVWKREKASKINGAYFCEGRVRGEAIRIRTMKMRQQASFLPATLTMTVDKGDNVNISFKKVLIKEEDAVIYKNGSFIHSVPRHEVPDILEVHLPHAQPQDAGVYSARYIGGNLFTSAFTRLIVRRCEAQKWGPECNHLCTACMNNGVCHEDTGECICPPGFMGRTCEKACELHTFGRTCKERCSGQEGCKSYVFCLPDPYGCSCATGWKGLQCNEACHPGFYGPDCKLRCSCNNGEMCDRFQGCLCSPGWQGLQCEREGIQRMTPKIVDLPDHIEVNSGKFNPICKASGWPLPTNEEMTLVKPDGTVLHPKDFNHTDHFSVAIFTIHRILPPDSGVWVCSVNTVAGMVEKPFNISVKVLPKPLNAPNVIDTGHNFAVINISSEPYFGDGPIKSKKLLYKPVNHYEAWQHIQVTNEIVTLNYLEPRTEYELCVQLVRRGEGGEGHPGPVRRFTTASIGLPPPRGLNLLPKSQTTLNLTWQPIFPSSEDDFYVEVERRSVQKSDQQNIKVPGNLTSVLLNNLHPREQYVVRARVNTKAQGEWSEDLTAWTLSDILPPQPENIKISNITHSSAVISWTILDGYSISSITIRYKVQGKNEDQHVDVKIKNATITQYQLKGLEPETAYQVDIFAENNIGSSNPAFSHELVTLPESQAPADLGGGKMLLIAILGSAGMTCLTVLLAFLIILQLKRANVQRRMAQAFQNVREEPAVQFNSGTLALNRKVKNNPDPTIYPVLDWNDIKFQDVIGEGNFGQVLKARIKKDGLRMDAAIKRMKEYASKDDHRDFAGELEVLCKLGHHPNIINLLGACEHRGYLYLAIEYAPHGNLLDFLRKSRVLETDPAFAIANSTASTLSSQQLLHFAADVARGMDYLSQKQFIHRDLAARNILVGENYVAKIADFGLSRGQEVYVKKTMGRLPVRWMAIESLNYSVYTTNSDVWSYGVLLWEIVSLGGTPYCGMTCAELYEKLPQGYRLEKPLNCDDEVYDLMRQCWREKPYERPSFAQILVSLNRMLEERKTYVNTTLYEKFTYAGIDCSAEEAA
EPH-B1, sequence (P54762 18-984): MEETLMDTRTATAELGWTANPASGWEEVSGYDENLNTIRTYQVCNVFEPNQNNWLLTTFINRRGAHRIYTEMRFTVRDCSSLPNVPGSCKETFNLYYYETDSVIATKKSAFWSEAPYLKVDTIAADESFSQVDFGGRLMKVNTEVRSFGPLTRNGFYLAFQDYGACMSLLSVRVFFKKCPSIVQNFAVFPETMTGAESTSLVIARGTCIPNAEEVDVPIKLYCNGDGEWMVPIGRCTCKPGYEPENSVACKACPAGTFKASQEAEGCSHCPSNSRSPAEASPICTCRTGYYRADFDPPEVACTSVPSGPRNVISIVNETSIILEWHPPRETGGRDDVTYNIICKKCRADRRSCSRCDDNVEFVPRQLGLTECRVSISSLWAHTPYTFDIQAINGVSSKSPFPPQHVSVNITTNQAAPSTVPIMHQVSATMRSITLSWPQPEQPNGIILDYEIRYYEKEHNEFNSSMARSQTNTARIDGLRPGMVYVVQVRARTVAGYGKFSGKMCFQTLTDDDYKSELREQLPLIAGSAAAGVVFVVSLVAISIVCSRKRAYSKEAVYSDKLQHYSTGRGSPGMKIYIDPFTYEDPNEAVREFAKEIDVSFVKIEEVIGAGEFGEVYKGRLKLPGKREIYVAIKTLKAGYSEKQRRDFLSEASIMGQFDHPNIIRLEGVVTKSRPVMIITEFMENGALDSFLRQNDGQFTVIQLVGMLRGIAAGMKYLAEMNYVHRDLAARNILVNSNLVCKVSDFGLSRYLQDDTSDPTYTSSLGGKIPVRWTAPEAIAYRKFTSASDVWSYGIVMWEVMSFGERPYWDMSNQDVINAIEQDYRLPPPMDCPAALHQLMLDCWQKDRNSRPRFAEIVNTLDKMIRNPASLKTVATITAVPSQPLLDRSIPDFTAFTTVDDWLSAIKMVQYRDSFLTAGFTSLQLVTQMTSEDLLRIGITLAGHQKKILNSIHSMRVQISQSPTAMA
ABL, sequence (P00519 whole entry): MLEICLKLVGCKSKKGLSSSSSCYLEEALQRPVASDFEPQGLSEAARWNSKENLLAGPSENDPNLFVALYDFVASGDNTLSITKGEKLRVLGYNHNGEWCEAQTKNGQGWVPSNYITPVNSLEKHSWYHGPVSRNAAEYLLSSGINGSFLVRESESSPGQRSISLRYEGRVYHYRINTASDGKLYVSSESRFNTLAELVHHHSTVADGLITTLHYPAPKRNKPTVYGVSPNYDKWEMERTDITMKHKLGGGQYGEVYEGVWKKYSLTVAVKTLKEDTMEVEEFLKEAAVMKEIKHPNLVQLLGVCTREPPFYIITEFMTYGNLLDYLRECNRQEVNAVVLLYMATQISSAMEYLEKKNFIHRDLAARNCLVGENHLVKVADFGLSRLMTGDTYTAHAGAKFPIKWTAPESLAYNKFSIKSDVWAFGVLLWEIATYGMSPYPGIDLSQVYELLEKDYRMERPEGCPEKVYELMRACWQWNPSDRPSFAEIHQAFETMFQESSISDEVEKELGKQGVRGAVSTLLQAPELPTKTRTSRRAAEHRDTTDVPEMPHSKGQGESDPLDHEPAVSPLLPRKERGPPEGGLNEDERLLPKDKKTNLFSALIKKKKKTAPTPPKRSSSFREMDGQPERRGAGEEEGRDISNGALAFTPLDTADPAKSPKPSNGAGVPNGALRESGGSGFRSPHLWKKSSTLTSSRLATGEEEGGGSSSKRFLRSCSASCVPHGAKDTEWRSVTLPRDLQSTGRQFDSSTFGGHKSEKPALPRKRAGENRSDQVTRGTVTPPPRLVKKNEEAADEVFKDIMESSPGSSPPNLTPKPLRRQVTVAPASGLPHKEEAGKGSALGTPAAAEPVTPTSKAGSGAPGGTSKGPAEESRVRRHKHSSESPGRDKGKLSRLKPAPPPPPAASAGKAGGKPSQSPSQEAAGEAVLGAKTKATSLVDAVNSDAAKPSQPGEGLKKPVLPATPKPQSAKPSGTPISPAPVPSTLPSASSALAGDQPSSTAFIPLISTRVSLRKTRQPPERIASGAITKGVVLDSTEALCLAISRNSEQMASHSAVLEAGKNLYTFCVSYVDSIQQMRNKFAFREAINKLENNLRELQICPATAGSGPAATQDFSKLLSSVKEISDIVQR
MARK2, sequence (Q7KZI7 whole entry): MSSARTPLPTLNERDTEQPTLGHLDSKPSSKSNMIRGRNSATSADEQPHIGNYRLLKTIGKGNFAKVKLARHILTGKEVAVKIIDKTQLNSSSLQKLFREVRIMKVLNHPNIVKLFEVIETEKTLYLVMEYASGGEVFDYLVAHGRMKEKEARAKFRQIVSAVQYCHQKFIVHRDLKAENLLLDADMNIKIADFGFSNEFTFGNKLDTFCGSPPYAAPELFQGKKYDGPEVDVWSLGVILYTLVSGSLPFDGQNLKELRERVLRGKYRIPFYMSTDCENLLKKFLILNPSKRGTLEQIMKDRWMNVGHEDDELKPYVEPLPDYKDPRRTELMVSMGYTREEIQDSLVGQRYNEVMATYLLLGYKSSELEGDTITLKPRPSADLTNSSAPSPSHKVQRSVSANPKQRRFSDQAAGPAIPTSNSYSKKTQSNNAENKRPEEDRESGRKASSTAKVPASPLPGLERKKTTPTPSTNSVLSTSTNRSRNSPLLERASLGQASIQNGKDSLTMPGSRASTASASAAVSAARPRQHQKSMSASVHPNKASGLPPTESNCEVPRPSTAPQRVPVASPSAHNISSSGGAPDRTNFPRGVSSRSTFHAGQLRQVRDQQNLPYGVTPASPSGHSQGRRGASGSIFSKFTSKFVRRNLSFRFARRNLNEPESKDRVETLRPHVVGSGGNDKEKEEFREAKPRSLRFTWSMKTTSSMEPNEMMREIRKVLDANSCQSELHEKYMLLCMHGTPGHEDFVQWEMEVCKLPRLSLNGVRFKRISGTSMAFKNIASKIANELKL
CK1δ, sequence (P48730 whole entry): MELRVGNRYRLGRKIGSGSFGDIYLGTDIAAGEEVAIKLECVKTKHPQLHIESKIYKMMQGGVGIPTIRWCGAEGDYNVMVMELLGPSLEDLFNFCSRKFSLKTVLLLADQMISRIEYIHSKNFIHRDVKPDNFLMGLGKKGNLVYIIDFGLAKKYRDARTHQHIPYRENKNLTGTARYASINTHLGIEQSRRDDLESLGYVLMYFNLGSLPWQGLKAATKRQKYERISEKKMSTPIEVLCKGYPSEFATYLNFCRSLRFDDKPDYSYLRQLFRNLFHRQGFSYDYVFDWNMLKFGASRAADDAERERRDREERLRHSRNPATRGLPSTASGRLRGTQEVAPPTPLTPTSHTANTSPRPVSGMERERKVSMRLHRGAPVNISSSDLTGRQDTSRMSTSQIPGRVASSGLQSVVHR
GSK3b, sequence (P49841 whole entry): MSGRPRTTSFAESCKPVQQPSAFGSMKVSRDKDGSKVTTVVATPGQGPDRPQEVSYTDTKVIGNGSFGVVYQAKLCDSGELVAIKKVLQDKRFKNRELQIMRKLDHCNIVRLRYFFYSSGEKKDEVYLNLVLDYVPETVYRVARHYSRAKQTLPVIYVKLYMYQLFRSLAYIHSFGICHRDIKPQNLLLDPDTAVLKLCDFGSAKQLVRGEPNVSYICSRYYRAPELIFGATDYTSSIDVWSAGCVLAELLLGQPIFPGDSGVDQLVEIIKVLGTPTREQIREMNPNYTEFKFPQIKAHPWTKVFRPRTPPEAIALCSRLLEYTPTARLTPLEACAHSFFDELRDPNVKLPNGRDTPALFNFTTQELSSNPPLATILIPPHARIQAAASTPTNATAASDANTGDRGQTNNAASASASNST

Cc1cccc(C)c1NC(=O)N1C/C=C\COc2cccc(c2)Nc2cc1ncn2 [Compound I-1]
remaining activity at 0.1 µM (PKA; [1]): 105% | remaining activity at 1 µM (PKA; [2]): 88% | remaining activity at 0.1 µM (MAPKAP-K2; [1]): 88% | remaining activity at 1 µM (MAPKAP-K2; [2]): 84% | remaining activity at 0.1 µM (ABL; [1]): 7% | remaining activity at 1 µM (ABL; [2]): 2% | Activity of the protein kinase when treated with compound I-1 (% control) (ROCK 2; [1]): 95 % control | Activity of the protein kinase when treated with compound I-1 (% control) (ROCK 2; [2]): 91 % control | remaining activity at 0.1 µM (CK1δ; [1]): 97% | remaining activity at 1 µM (CK1δ; [2]): 99% | remaining activity at 0.1 µM (EF2K; [1]): 103% | remaining activity at 1 µM (EF2K; [2]): 83% | remaining activity at 0.1 µM (MARK2; [1]): 102% | remaining activity at 1 µM (MARK2; [2]): 71% | remaining activity at 0.1 µM (EPH-A4; [1]): 8% | remaining activity at 1 µM (EPH-A4; [2]): 3% | remaining activity at 0.1 µM (EPH-B1; [1]): 40% | remaining activity at 1 µM (EPH-B1; [2]): 43% | remaining activity at 0.1 µM (PKBb; [1]): 102% | remaining activity at 1 µM (PKBb; [2]): 89% | remaining activity at 0.1 µM (PDK1; [1]): 103% | remaining activity at 1 µM (PDK1; [2]): 87% | remaining activity at 0.1 µM (TIE2; [1]): 52% | remaining activity at 1 µM (TIE2; [2]): 10% | remaining activity at 0.1 µM (CHK1; [1]): 99% | remaining activity at 1 µM (CHK1; [2]): 94% | remaining activity at 0.1 µM (IRAK4; [1]): 92% | remaining activity at 1 µM (IRAK4; [2]): 86% | Activity of the protein kinase when treated with compound I-1 (% control) (CK2; [1]): 97 % control | Activity of the protein kinase when treated with compound I-1 (% control) (CK2; [2]): 91 % control | remaining activity at 0.1 µM (GSK3b; [1]): 101% | remaining activity at 1 µM (GSK3b; [2]): 75% | remaining activity at 0.1 µM (ERK1; [1]): 97% | remaining activity at 1 µM (ERK1; [2]): 87%
